We go through four compounds from ChEMBL document CHEMBL1126407, “-Lactam peptides as potential inhibitors of the HIV gp120-CD4 interaction” (Bioorg Med Chem Lett, 1992).

Broadly, the IC50 is the concentration that inhibits the measured activity by half.

The structures appear in SMILES notation. The source made the active and inactive calls. The calls are words filed in the database; no cut-off is given here.

In test [1] the target is Envelope glycoprotein gp160 (Human immunodeficiency virus type 1 group M subtype B (isolate HXB2)(HIV-1)) (UniProt P04578). The experiment in a line: Tested for inhibition of HIV CD4-gp120 interaction in an ELISA based binding assay using recombinant gp120 and soluble CD4 up to a concentration of 350 uM; No inhibition. Background: An ELISA detects its analyte on a solid surface through an enzyme-linked reagent.

Test [2] has the same target. Kind of test: Tested for inhibition of HIV CD4-gp120 interaction in an ELISA based binding assay using recombinant gp120 and soluble CD4 up to a concentration of 550 uM; No inhibition.
Test [3] deals with Envelope glycoprotein gp160 (Human immunodeficiency virus type 1 group M subtype B (isolate HXB2)(HIV-1), UniProt P04578). The experiment in a line: Tested for inhibition of HIV gp120-CD4 interaction in an ELISA based binding assay using recombinant CD4-gp120.

On to `CC(C)C[C@H](NC(=O)[C@H](Cc1ccccc1)NC(=O)[C@H]1/C(=C/CO)O[C@@H]2CC(=O)N21)C(=O)OCc1ccccc1`, for which the inhibition result in test [1] is “inactive”.

In the case of `COC(=O)[C@H](Cc1ccccc1)NC(=O)[C@H]1/C(=C/CO)O[C@@H]2CC(=O)N21`, the inhibition result in test [2] was “inactive”.

As for `COC(=O)C(=O)N1CCC[C@@H]1C(=O)N[C@H](Cc1ccccc1)C(=O)OCc1ccccc1`, in test [3], the IC50 is 250 µM.

For the compound `COC(=O)[C@H](Cc1ccccc1)NC(=O)[C@@H]1N2C(=O)[C@@H](N)[C@H]2SC1(C)C`, in test [1], the inhibition result was “inactive”.
